The results in this text go back to US10793557B2, “Sting agonist compounds” (Merck Sharp & Dohme Corp., priority 2018, dated 2020).

The test system of test [1] is secretion of interferon-beta from THP1 cells. As to the kind of experiment: IFN-β secretion in THP1 cell culture (5 h). It counts as cell-based. Conditions: Homo sapiens, THP-1, 5 h, 30 uM cGAMP = 100%; for activation at 30 µM: compound at 30 μM, read-out: % Effect at 30 μM relative to 2′3′-cGAMP; for activation at 3 µM: compound at 3 uM, read-out: % Effect relative to 2′3′-cGAMP (@ 3 uM). The procedure, abridged:
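IFN-β in supernatant measured by AlphaLISA after a 5 h, 37 °C incubation of THP1 cells with compound (10 concentrations, 30000 down to 1.5 nM, 0.3% DMSO) in low-serum RPMI. Values scaled between DMSO and 30 uM cGAMP controls; 4-parameter curve fit yields EC50.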

The next test concerns the target T1, full-length HAQ STING (Homo sapiens, UniProt Q86WV6, G230A/H232R/R293Q/R71H).
T1 construct: AviTag (after GG linker) (C); HRV3C cleavage site (after GS linker) (C); HIS8 (C); made in house; host or cells: Trichoplusia ni (Hi-Five) insect cells infected with baculovirus (virus generated and amplified in Sf21 cells); used as a washed membrane preparation
As to the kind of experiment: 3H-cGAMP filtration binding assay (HAQ STING). The conditions noted are these: for EC50: competition with tritiated cGAMP, HAQ STING membrane; for inhibition at 2 µM: at 2,000 nM compound. Summed up:
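Hi-Five (T. ni) membranes overexpressing the STING variant (2.2 ug/ml working) preincubated with compound 60 min at RT in PBS, then [3H]cGAMP (8 nM working stock) added for 60 min at RT. Bound radioactivity captured on GF/B filters and counted by scintillation; EC50 from 4-parameter fit of control-normalized activity.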

In the next test the target is T2, full-length WT STING (Homo sapiens, UniProt Q86WV6, H232R).
T2 construct: AviTag (after gg linker) (C); HRV3C cleavage site (after gs linker) (C); HIS8 (C); made in house; host or cells: Trichoplusia ni (Hi-Five) insect cells infected with baculovirus (virus generated and amplified in Sf21 cells); used as a washed membrane preparation
As to the kind of experiment: 3H-cGAMP filtration binding assay (WT STING). Conditions: for EC50: competition with tritiated cGAMP, WT STING membrane; for inhibition at 2 µM: at 2,000 nM compound. Summed up:
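EC50 values come from 4-parameter fits of remaining filter-bound tritium versus log concentration (10-point, 1:3 dilution). Insect-cell membranes carrying full-length WT STING were incubated 60 min at RT with compound and tritiated cGAMP (16 nM working stock) before filtration.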

T1 sequence (Q86WV6 with tags, fused parts or gaps R71H/G230A/H232R/R293Q): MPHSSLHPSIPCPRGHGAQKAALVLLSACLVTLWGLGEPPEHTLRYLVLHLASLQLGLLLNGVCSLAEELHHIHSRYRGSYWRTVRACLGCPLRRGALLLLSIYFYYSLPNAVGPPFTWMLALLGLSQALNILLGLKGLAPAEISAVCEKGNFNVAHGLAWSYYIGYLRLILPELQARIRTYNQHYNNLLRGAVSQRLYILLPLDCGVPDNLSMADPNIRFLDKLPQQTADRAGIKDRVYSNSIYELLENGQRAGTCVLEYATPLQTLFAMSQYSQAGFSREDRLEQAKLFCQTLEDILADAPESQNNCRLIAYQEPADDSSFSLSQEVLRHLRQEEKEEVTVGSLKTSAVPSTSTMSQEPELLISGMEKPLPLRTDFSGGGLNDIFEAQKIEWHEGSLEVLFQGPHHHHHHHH
T2 sequence (Q86WV6 with tags, fused parts or gaps H232R): as the sequence (Q86WV6 with tags, fused parts or gaps R71H/G230A/H232R/R293Q) above, with H71R, A230G, Q293R counted along it

On to `COc1cc2sc(C(=O)C[C@H](C)C(=O)O)cc2c(F)c1OCC1(COc2c(OC)cc3sc(C(=O)C[C@H](C)C(=O)O)cc3c2F)CC1` [Example 144, (2S,2′S)-4,4′-(((cyclopropane-1,1-diylbis-(methylene))bis (oxy))bis(4-fluoro-6-methoxybenzo[b]thiophene-5,2-diyl))bis(2-methyl-4-oxobutanoic acid)], for which, in test [1], the activation at 30 µM amounted to 8%. The figures for the concentration giving a half-maximal response (EC50) at full-length HAQ STING and on full-length WT STING were 15 nM and 93 nM, respectively.
Turning to `COc1cc2sc(CC[C@H](C)C(=O)O)cc2cc1OCCCOc1c(OC)cc2sc(C(=O)C[C@H](C)C(=O)O)cc2c1Cl` [Example 145, (S)-4-(5-(3-((2-((S)-3-carboxybutyl)-6-methoxybenzo[b]thiophen-5-yl)oxy)propoxy)-4-chloro-6-methoxybenzo[b]thiophen-2-yl)-2-methyl-4-oxobutanoic acid], the activation at 3 µM in test [1] worked out at 59%. This compound gave an EC50 on full-length HAQ STING of 143 nM. The same compound gave an inhibition at 2 µM on full-length WT STING of 47%.
Take `COc1cc2sc(CC[C@H](C)C(=O)O)cc2cc1OCCCOc1c(OC)cc2sc(C(=O)C[C@H](C)C(=O)O)cc2c1Br` [Example 146, (S)-4-(4-bromo-5-(3-((2-((S)-3-carboxybutyl)-6-methoxybenzo[b]thiophen-5-yl)oxy)propoxy)-6-methoxybenzo[b]thiophen-2-yl)-2-methyl-4-oxobutanoic acid]: the activation at 3 µM in test [1] was 27%. Further, the results for the inhibition at 2 µM at full-length HAQ STING and on full-length WT STING were 55% and 18%, respectively.
For `COc1cc2sc(CC[C@H](C)C(=O)O)cc2c(F)c1OCCCOc1c(OC)cc2sc(C(=O)C[C@H](C)C(=O)O)cc2c1Cl` [Example 147, (S)-4-(5-(3-((2-((S)-3-carboxybutyl)-4-fluoro-6-methoxybenzo[b]thiophen-5-yl)oxy)propoxy)-4-chloro-6-methoxybenzo[b]thiophen-2-yl)-2-methyl-4-oxobutanoic acid], in test [1], the activation at 3 µM came to 71%. Besides, the 50% effective concentration (EC50) at full-length HAQ STING is 18 nM; at full-length WT STING, 207 nM.
Take `COc1cc2sc(CC[C@H](C)C(=O)O)cc2c(F)c1OCCCOc1c(OC)cc2sc(C(=O)C[C@H](C)C(=O)O)cc2c1Br` [Example 148, (S)-4-(4-bromo-5-(3-((2-((S)-3-carboxybutyl)-4-fluoro-6-methoxybenzo[b]thiophen-5-yl)oxy)propoxy)-6-methoxybenzo[b]thiophen-2-yl)-2-methyl-4-oxobutanoic acid]: the activation at 3 µM in test [1] was found to be 41%. Also, the results for the concentration giving a half-maximal response (EC50) at full-length HAQ STING and on full-length WT STING were 395 nM and 411 nM, respectively.
As for `COc1cc2sc(CCC(C)(C)C(=O)O)cc2c(F)c1OCCCOc1c(OC)cc2sc(C(=O)CC(C)(C)C(=O)O)cc2c1F` [Example 149, 4-(5-(3-((2-(3-carboxy-3-methylbutyl)-4-fluoro-6-methoxybenzo[b]thiophen-5-yl)oxy)propoxy)-4-fluoro-6-methoxybenzo[b]thiophen-2-yl)-2,2-dimethyl-4-oxobutanoic acid], in test [1], the activation at 3 µM amounted to 70%. Further, the EC50 on full-length HAQ STING was 4 nM; at full-length WT STING it was 46 nM.
In the same order, the values of `COc1cc2sc(C(=O)C[C@H](C)C(=O)O)cc2cc1OCCCOc1c(OC)cc2sc(CC[C@H](C)C(=O)O)cc2c1Cl` [Example 150, (S)-4-(5-(3-((2-((S)-3-carboxybutyl)-4-chloro-6-methoxybenzo[b]thiophen-5-yl)oxy)propoxy)-6-methoxybenzo[b]thiophen-2-yl)-2-methyl-4-oxobutanoic acid] are 52%, 213 nM and 1040 nM.
In the same order, the values of `COc1cc2sc(C(=O)C[C@H](C)C(=O)O)cc2c(F)c1OCCCOc1c(OC)cc2sc(CC[C@H](C)C(=O)O)cc2c1Cl` [Example 151, (S)-4-(5-(3-((2-((S)-3-carboxybutyl)-4-chloro-6-methoxybenzo[b]thiophen-5-yl)oxy)propoxy)-4-fluoro-6-methoxybenzo[b]thiophen-2-yl)-2-methyl-4-oxobutanoic acid] are 63%, 77 nM and 1040 nM.
In the case of `COc1cc2sc(CC[C@H](C)C(=O)O)cc2c(Cl)c1OCCCOc1c(OC)cc2sc(C(=O)C[C@H](C)C(=O)O)cc2c1Cl` [Example 152, (S)-4-(5-(3-((2-((S)-3-carboxybutyl)-4-chloro-6-methoxybenzo[b]thiophen-5-yl)oxy)propoxy)-4-chloro-6-methoxybenzo[b]thiophen-2-yl)-2-methyl-4-oxobutanoic acid], in test [1], the activation at 3 µM amounted to 7%. The inhibition at 2 µM at full-length HAQ STING amounted to 35%; at full-length WT STING, 3%.
On to `COc1cc2sc(C(=O)C[C@H](C)C(=O)O)cc2c(Cl)c1OCCOc1c(OC)cc2sc(C(=O)C[C@H](C)C(=O)O)cc2c1Cl` [Example 153, (2S,2′S)-4,4′-((ethane-1,2-diylbis(oxy))bis(4-chloro-6-methoxybenzo[b]thiophene-5,2-diyl))bis(2-methyl-4-oxobutanoic acid)], for which the activation at 3 µM in test [1] was determined as 137%. Also, the EC50 at full-length HAQ STING was 3 nM; at full-length WT STING, 10 nM.
Take `COc1cc2sc(CC[C@H](C)C(=O)O)cc2c(Cl)c1OCCOc1c(OC)cc2sc(C(=O)C[C@H](C)C(=O)O)cc2c1Cl` [Example 154, (S)-4-(5-(2-((2-((S)-3-carboxybutyl)-4-chloro-6-methoxybenzo[b]thiophen-5-yl)oxy)ethoxy)-4-chloro-6-methoxybenzo[b]thiophen-2-yl)-2-methyl-4-oxobutanoic acid]: the activation at 3 µM in test [1] worked out at 76%. The compound also registered a 50% effective concentration (EC50) on full-length HAQ STING of 694 nM. This compound also displayed an inhibition at 2 µM at full-length WT STING of 30%.
With `COc1cc2sc(C(=O)C[C@H](C)C(=O)O)cc2cc1OCCCOc1c(OC)cc2sc(C(=O)C[C@H](C)C(=O)O)cc2c1Cl` [Example 155, (S)-4-(5-(3-((2-((S)-3-carboxybutanoyl)-4-chloro-6-methoxybenzo[b]thiophen-5-yl)oxy)propoxy)-6-methoxybenzo[b]thiophen-2-yl)-2-methyl-4-oxobutanoic acid], the activation at 3 µM in test [1] was 129%. Also, the EC50 on full-length HAQ STING was determined as 3 nM; on full-length WT STING, 5 nM.
In the same order, the values of `COc1cc2sc(C(=O)C[C@H](C)C(=O)O)cc2c(F)c1OCCCOc1c(OC)cc2sc(C(=O)C[C@H](C)C(=O)O)cc2c1F` [Example 156, (2S,2′S)-4,4′-((propane-1,3-diylbis(oxy))bis(4-fluoro-6-methoxybenzo[b]thiophene-5,2-diyl))bis(2-methyl-4-oxobutanoic acid)] are 118%, 1 nM and 1 nM.
In the same order, the values of `CNc1cc2sc(C(=O)C[C@H](C)C(=O)O)cc2cc1OCCCOc1c(OC)cc2sc(C(=O)C[C@H](C)C(=O)O)cc2c1F` [Example 157, (S)-4-(5-(3-((2-((S)-3-carboxybutanoyl)-4-fluoro-6-methoxybenzo[b]thiophen-5-yl)oxy)propoxy)-6-(methylamino)benzo[b]thiophen-2-yl)-2-methyl-4-oxobutanoic acid] are 63%, 1 nM and 1 nM.
With `COc1cc2sc(CC[C@H](C)C(=O)O)cc2cc1OCCCOc1c(OC)cc2sc(C(=O)C[C@H](C)C(=O)O)cc2c1F` [Example 158, (S)-4-(5-(3-((2-((S)-3-carboxybutyl)-6-methoxybenzo[b]thiophen-5-yl)oxy)propoxy)-4-fluoro-6-methoxybenzo[b]thiophen-2-yl)-2-methyl-4-oxobutanoic acid], the activation at 30 µM in test [1] is 43%. The concentration giving a half-maximal response (EC50) on full-length HAQ STING was 2 nM; at full-length WT STING it was 32 nM.
On the same counts, the results for `COc1cc2sc(C(=O)C[C@H](C)C(=O)O)cc2nc1OCCCc1c(OC)cc2sc(C(=O)C[C@H](C)C(=O)O)cc2c1F` [Example 159, (S)-4-(5-(3-(2-((S)-3-carboxybutanoyl)-4-fluoro-6-methoxybenzo[b]thiophen-5-yl)propoxy)-6-methoxythieno[3,2-b]pyridin-2-yl)-2-methyl-4-oxobutanoic acid] are 99%, 3 nM and 3 nM.
In the same order, the values of `COc1cc2sc(C(=O)C[C@H](C)C(=O)O)cc2cc1OCC(C)COc1cc2cc(C(=O)C[C@H](C)C(=O)O)sc2cc1OC` [Example 160, (2S,2′S)-4,4′-(((2-methylpropane-1,3-diyl)bis(oxy))bis(6-methoxybenzo[b]thiophene-5,2-diyl))bis(2-methyl-4-oxobutanoic acid)] are 18%, 1 nM and 6 nM.

By EC50 is commonly meant the concentration giving half of the maximal effect. A lower EC50 goes with greater potency. Usually inhibition stands for the drop in the measured response relative to a control, in per cent.
